According to publication PMC9374667 (Communications Biology, 2022):
Values joined by “and” are separate entries in the source; they are usually repeats but may differ in a detail not shown here. Equal entries are not always repeated.

Columns and labels:
Assay type in all cases: in vivo
[1] = system: db/db mice; assay: Fat depots weight (BAT, iWAT, eWAT; percentage of body weight); conditions: db/db mice
Method: (§1) The lean wild type control and the db/db control mice were given equal vehicle volume (0.5% CMC-Na solution). All mice were monitored for food intake, body weight, and fasting blood glucose during the 35-day trial. Glucose tolerance test (GTT) and insulin resistance test (ITT) were performed at 4 and 5 weeks of treatment, respectively. Metabolic analysis was performed at 5 weeks of treatment. At the end of the study, blood samples were taken through the retroorbital venous sinus of mice, fat depots (brown fat, inguinal subcutaneous fat, epididymal fat, perirenal fat and mesenteric fat depot) were dissected, weighed, and immediately frozen in liquid nitrogen and stored at −80 °C until required. Weight of fat depots are expressed in percentage (fat depots weight /bodyweight * 100%).

[2] = system: db/db mice; assay: Weekly fasting glucose levels of db/db mice; conditions: for Weekly fasting glucose levels of db/db mice (Figure 5a): BBR 150mg/kg, individual mice 1-10, in mmol/L
Method: as §1

[3] = system: db/db mice; assay: Fasting serum insulin levels (ELISA); set-up: insulin level (Figure 5b): unit not given here; conditions: db/db mice
Method: (§2) Mice were fasted for 4 h for insulin resistance test and intraperitoneally injected with 1 unit/kg of insulin. Blood glucose levels were measured from the tail vein blood at 0, 15, 30, 45, 60, 90, and 120 min after injection. Plasma insulin levels were measured using an ultrasensitive mouse insulin ELISA kit (Nanjing Jiancheng Bioengineering Institute, Nanjing, China).

[4] = system: db/db mice; assay: Glucose tolerance test (GTT); set-up: blood glucose level / blood glucose AUC: unit not given here; conditions: BBR 150mg/kg; for blood glucose level, mean: mean of 10 mice
[5] = system: db/db mice; assay: Insulin tolerance test (ITT), AUC and initial slope; set-up: blood glucose AUC: unit not given here; conditions: BBR 150mg/kg; for blood glucose level: in mmol/L (unit assumed)
Method: as §2

[6] = BBR 150mg/kg, individual mice 1-10, in %
[7] = individual mice, time column 1 of 7 (time not printed)
[8] = individual mice, time column 2 of 7 (time not given)
[9] = individual mice, time column 3 of 7 (time not given)
[10] = individual mice, time column 4 of 7 (time not given)
[11] = individual mice, time column 5 of 7 (time not given)
[12] = individual mice, time column 6 of 7 (time not given)
[13] = individual mice, time column 7 of 7 (time not printed)

For COc1ccc2cc3[n+](cc2c1OC)CCc1cc2c(cc1-3)OCO2 [BBR, Berberine chloride dihydrate], the “eWAT fat depot weight (Figure 4c)” value [1, 6] was 2.6561 and 3.1311 and 2.7778 and 2.6199 and 2.8014 and 3.2406 and 2.7924 and 3.779 and 2.6477 and 2.5027, the “iWAT fat depot weight (Figure 4c)” value [1, 6] was 3.5734 and 2.9857 and 2.7524 and 3.658 and 3.8567 and 3.8981 and 3.3728 and 3.0795 and 1.8382 and 2.8305 and the “Fat depots weight / body weight” value ([1]; 150 mg/kg for 35 days, individual mice, 150 mg/kg) was 19.7808% and 22.3551% and 14.9978% and 19.6619% and 20.7394% and 16.7296% and 16.0902% and 17.3833% and 23.2726% and 23.7021%. The “Fat depots weight compared with vehicle” value ([1]; BJ 75 and 150 mg/kg, BBR 150 mg/kg, Ibu 150 mg/kg) was “lower fat depots weight than vehicle-treated db/db mice”, the “Weekly fasting glucose levels of db/db mice (Figure 5a)” value (from here on “Weekly fasting glucose levels”) ([2]; 1st of 6 weekly columns (time not given)) was 17.4 and 11.5 and 21.8 and 12.0 and 11.7 and 15.7 and 14.9 and 17.1 and the “Weekly fasting glucose levels” value ([2]; 2nd of 6 weekly columns (time not given)) was 26.2 and 16.0 and 21.2 and 18.4 and 15.0 and 21.3 and 21.6 and 19.3 and 16.9. For the same compound, the “Weekly fasting glucose levels” value ([2]; 3rd of 6 weekly columns (time not given)) was 23.6 and 18.7 and 19.5 and 20.6 and 21.5 and 23.7 and 13.1 and 20.7 and 20.5, the “Weekly fasting glucose levels” value ([2]; 4th of 6 weekly (time not given)) was 19.5 and 14.4 and 15.7 and 19.0 and 17.0 and 19.2 and 9.3 and 10.1 and 18.3 and 13.0 and the “Weekly fasting glucose levels” value ([2]; 5th of 6 weekly (time not given)) was 18.5 and 10.1 and 10.6 and 12.8 and 13.2 and 9.4 and 10.5 and 8.4 and 10.7 and 13.3. The “Weekly fasting glucose levels” value ([2]; 6th of 6 weekly (time not given)) was 15.5 and 9.3 and 11.4 and 15.8 and 10.5 and 10.2 and 10.0 and 9.8 and 13.5, the “Fasting blood glucose level at the end of the treatment” value ([2]; db/db mice, 150 mg/kg, vehicle rose from 14.4 ± 3.4 to 23.9 ± 3.4) was 11.6 ± 2.4 mmol/L and the “Blood (serum) glucose levels compared with vehicle” value ([2]; db/db mice, BJ 75 and 150 mg/kg, BBR 150 mg/kg, Ibu 150 mg/kg) was “slowed the increase in glucose levels”. The “insulin level (Figure 5b)” value ([3]; BBR 150mg/kg, fasting serum, individual mice 1-6) was 14.8249 and 14.5179 and 14.1979 and 10.7342 and 12.3345 and 12.7422, the “Fasting serum insulin levels” value ([3]; 150 mg/kg, 35 days of treatment, vs vehicle) was “did not produce significant effects” and the blood glucose level [4, 7] was 16.4 and 13.5 and 14.2 and 17.7 and 15.0 and 13.4 and 16.8. The blood glucose level [4, 8] was 28.7 and 28.8 and 32.6 and 33.3, the blood glucose level [4, 9] was 31.2 and 22.4 and 33.3 and 29.2 and the blood glucose level [4, 10] was 27.9 and 29.2 and 23.4 and 32.4 and 30.4. The blood glucose level [4, 11] was 28.4 and 22.4 and 33.3 and 28.6, the blood glucose level [4, 12] was 23.4 and 21.0 and 20.5 and the blood glucose level [4, 13] was 17.7 and 16.7 and 22.7 and 19.6 and 20.9. For the same compound, the blood glucose level, mean ([4]; time column 1 of 7 (time not printed)) was 15 mmol/L, the blood glucose level, mean ([4]; time column 2 of 7 (time not given)) was 30.7 mmol/L and the blood glucose level, mean ([4]; time column 3 of 7 (time not given)) was 28.4 mmol/L. It also gave a blood glucose level, mean ([4]; time column 4 of 7 (time not given)) of 27.7 mmol/L, a blood glucose level, mean ([4]; time column 6 of 7 (time not given)) of 22.6 mmol/L and a blood glucose level, mean ([4]; time column 7 of 7 (time not printed)) of 20.1 mmol/L. The “blood glucose AUC” value ([4]; Figure 5d, individual mice) was 3443.25 and 3088.5 and 2416.5 and 3051.75 and 2479.5 and 3425.25 and 2977.5 and 2793.75 and 3132 and 3001.5, the blood glucose level [5, 7] was 19.2 and 16.4 and 9.2 and 15.3 and 9.5 and 19.6 and 19.0 and 21.8 and 10.2 and the blood glucose level [5, 8] was 18.1 and 16.0 and 9.1 and 15.7 and 11.1 and 18.6 and 18.3 and 22.5 and 13.5. For the same compound, the blood glucose level [5, 9] was 14.4 and 12.6 and 7.4 and 12.2 and 7.9 and 18.7 and 13.6 and 19.0 and 15.5 and 10.0, the blood glucose level [5, 10] was 12.3 and 9.3 and 4.0 and 8.5 and 6.8 and 15.1 and 11.8 and 17.7 and 13.7 and 6.9 and the blood glucose level [5, 11] was 10.3 and 9.1 and 4.5 and 8.8 and 7.2 and 13.0 and 10.2 and 17.4 and 10.8 and 7.5. The blood glucose level [5, 12] was 11.7 and 9.8 and 3.9 and 8.9 and 7.6 and 15.8 and 11.2 and 20.0 and 12.2 and 8.2, the blood glucose level [5, 13] was 11.0 and 10.0 and 4.1 and 9.3 and 6.7 and 17.4 and 10.3 and 19.0 and 11.5 and 7.3 and the “blood glucose AUC” value ([5]; Figure 5f, individual mice) was 948.75 and 1960.5 and 1518 and 2328 and 1638 and 1056.75 and 1563.75 and 1340.25 and 656.25 and 1265.25. The “Initial Slope” value ([5]; db/db mice, individual animals (Figure S10a)) was -0.0533 mmol/L/min and -0.03 mmol/L/min and -0.18 mmol/L/min and -0.0933 mmol/L/min and -0.1367 mmol/L/min and -0.0067 mmol/L/min and -0.16 mmol/L/min and -0.1267 mmol/L/min and -0.06 mmol/L/min and -0.1033 mmol/L/min.
